Results on one compound are retold here after publication PMC7016953 (Cells, 2020).

Assay [1] concerns T1, rTRPV2-YFP.
T1 construct: expressed in transfected cells
Description: Selectivity profiling, fluo-4 [Ca2+]i response, TRPV2. The assay is classed as cell-based, rat. How it is done: (§1) Human embryonic kidney 293 (HEK293) cells were stably transfected with expression plasmids that encode hTRPC3-YFP, hTRPC6-YFP, hTRPC7-YFP, mTRPC4ß-YFP, rTRPV1-CFP, rTRPV2-YFP, rTRPV3-YFP, mTRPV4-YFP, or hTRPM2 as previously described. Cell lines were cultured in Earle’s minimum essential medium (MEM; Sigma, Munich, Germany), supplemented with 10% fetal calf serum (Gibco Thermo Fisher Scientific, Darmstadt, Germany), 2 mM L-glutamine, and required concentrations of geneticin in a range of 0.4–1 mg/mL. A HEK293mTRPC5-YFP cell line was maintained and induced as described before. […] For electrophysiological and single cell [Ca^2+]i imaging experiments, PC12 cells were plated onto 25 mm poly-L-lysine-coated glass coverslips and measured 24–48 h after seeding. […]
(§2) The primary compound screen and the generation of concentration response curves in HEK293 cells or in PC12 cells were performed by using a custom-made fluorescence plate imager built into a robotic liquid handling station equipped with a 96-tip multichannel head (Freedom Evo 150, Tecan, Männedorf, Switzerland) as described previously. […] Plates were mounted on the imager, and fluorescence signals were recorded with a cooled Zyla 5.5 camera (Andor, Belfast, UK) through a 515 nm long pass filter. […] When inhibitory potencies were evaluated, a second pipetting step with the respective reference agonist was performed. […]

Assay [2] relates to T2, mTRPC5-YFP.
T2 construct: expressed in transfected cells
Description: Selectivity profiling, fluo-4 [Ca2+]i response, TRPC5. The assay is classed as cell-based, mouse. Particulars: 100 µM. Here is the method:
as §1, §2

For assay [3], the system named is T3, mTRPV4-YFP.
T3 construct: expressed in transfected cells
Description: Selectivity profiling, fluo-4 [Ca2+]i response, TRPV4. The assay is classed as cell-based, mouse. Particulars: 100 µM. How it is done: as §1, §2

Assay [4] deals with PC12 cells (native TRPC3 channel complexes). Kind of assay: Whole-cell patch-clamp recordings in PC12 cells. The assay is classed as cell-based, rat. The conditions noted are these: 50 µM artemisinin, whole cell. Here is the method: The recordings of TRPC3, TRPC6, or TRPC7 membrane currents in HEK293 or PC12 cells were realized by using a Multiclamp 700B amplifier with a Digidata 1440A digitizer controlled by the PClamp 10 software (all Molecular Devices, Sunnyvale, CA, U.S.A.). Recordings were obtained at room temperature either in the whole-cell or in an outside-out configuration as indicated. Cells were seeded as described above, but at lower density, mounted in a chamber (Warner Instruments, Hamden, CT; U.S.A.), placed onto the stage of an inverted microscope, and perfused with required solution. The standard extracellular solution contained 140 mM NaCl, 5 mM CsCl, 2 mM MgCl2, 1 mM CaCl2, 10 mM HEPES, and 0.035% BSA adjusted to pH 7.4 with NaOH. The composition of standard intracellular solution was 140 mM CsCl, 1 mM MgCl2, 5 mM EGTA, and 10 mM HEPES adjusted to pH 7.25 with CsOH; the osmolarity was 295 mOsm l^−1. In outside-out measurements, the pipette solution contained 5 mM EGTA and 1.1 mM CaCl2 to achieve a calculated free Ca^2+ concentration of 100 nM.
Patch pipettes were pulled from borosilicate glass capillaries BG150F-8P (Science Products, Hofheim, Germany) with a PIP6 pipette puller (HEKA Elektronik, Lambrecht, Germany). […] In all whole-cell measurements, the series resistance was lower than 13 MΩ, and compensated by 70%. If the access was unstable during the experiment (increase in series resistance by more than 15% at the end of the experiment), the cell was omitted from the analysis. To record current/voltage (I/V) curves, voltage ramps (400 mV s^−1) ranging from –100 to +100 mV were applied. Currents were filtered at 3 kHz with a four-pole Bessel filter and sampled at 10 kHz. […]
Figure 9 Artemisinin-induced ionic currents in HEK293 cells and in PC12 cells are sensitive to established TRPC3 inhibitors. […] Concentration–response curves were normalized to responses measured without an inhibitor (controls), and IC50 values were obtained by fitting a four-parameter Hill equation to the data. […]
(Patch clamp records ionic current or voltage across a cell membrane.)

For `C[C@@H]1CC[C@H]2[C@@H](C)C(=O)O[C@@H]3O[C@@]4(C)CC[C@@H]1[C@]32OO4` [artemisinin], the “[Ca2+]i response, TRPV2” value in assay [1] (100 µM) is on record as “none of the cell lines responded”. For the same compound, the “response of TRPV2-expressing cells to 2-APB after artemisinin” value in assay [1] (100 µM artemisinin, 2-APB final concentration 300 µM) is reported as “slightly increased response”. Moreover, the “[Ca2+]i response, TRPC5” value in assay [2] is given as “none of the cell lines responded”. Besides, the “[Ca2+]i response, TRPV4” value in assay [3] was “none of the cell lines responded”. Further, the “currents in PC12 cells” value in assay [4] is “induced a Ca^2+ influx and TRPC3-like currents”.
